# Data from US20250249045A1, “COMPOSITIONS AND METHODS RELATED TO EXTRACELLULAR VESICLE THERAPEUTIC DELIVERY PLATFORM” (priority 2022, published 2025).
# Tests used:
# SARS-CoV-2 pseudovirus [1] = format: cell-based
# SARS-CoV-2 pseudovirus [2] = tested on: SARS-CoV-2 pseudovirus; parameters: species or system mice; details: mouse
substance,measurement,setting,value
rhACE2,entry of SARS-CoV-2 pseudovirus into ACE2-expressing A549 cells,SARS-CoV-2 pseudovirus [1],efficiently blocked the infection
same,pseudovirus neutralization by flow cytometry,SARS-CoV-2 pseudovirus [1],efficiently neutralized
same,"pseudovirus signals in lung, ex-vivo fluorescence imaging",SARS-CoV-2 pseudovirus [2],failed to block SARS-CoV-2 pseudovirus entry
